Results on two compounds are retold here after patent US7994176B2, “Inhibitors of 11-beta-hydroxysteroid dehydrogenase 1” (Eli Lilly and Company, priority 2006, dated 2011).

Each structure is given as a SMILES string.

In test [1] the target is T1, 11β-HSD1 (Homo sapiens, UniProt P28845).
T1 construct: hTNFα to induce expression of 11β-HSD1; endogenous in cells; host or cells: primary human aortic smooth muscle cells (AoSMC), induced with hTNFα
As to the kind of experiment: Human aortic smooth muscle cell assay. In kind it is cell-based. To be noted: primary human AoSMC, hTNFα-induced 11β-HSD1, cortisol formed from cortisone. As for the experimental part:
Human Aortic Smooth Muscle Cell Assay
Primary human aortic smooth muscle cells (AoSMC) are cultured in 5% FBS growth medium to a passage number of 6, then pelleted by centrifugation and resuspended at a density of 9×10^4 cells/mL in 0.5% FBS assay medium containing 12 ng/mL hTNFα to induce expression of 11β-HSD1. Cells are seeded into 96-well tissue culture assay plates at 100 μL/well (9×10^3 cells/well) and incubated for 48 hours at 37° C., 5% CO2. Following induction, cells are incubated for 4 hours at 37° C., 5% CO2 in assay medium containing test compounds then treated with 10 μL/well of 10 μM cortisone solubilized in assay medium, and incubated for 16 hours at 37° C., 5% CO2. Medium from each well is transferred to a plate for subsequent analysis of cortisol using a competitive fluorescence resonance time resolved immunoassay. […] Higher levels of free cortisol result in diminishing energy transfer from the Europium-IgG to the APC-cortisol complex resulting in less APC fluorescence. Fluorescent intensities for Europium and APC are measured using a LJL Analyst AD. Europium and APC […] is measured using 360 nm excitation and 615 nm and 650 nm emission filters respectively. […] Fluorescent intensities measured for APC are modified by dividing by the Eu fluorescence (APC/Eu). […]

Test [2] has as its system cortisone conversion. As to the kind of experiment: Acute in vivo cortisone conversion assay. The note with it: male C57BL/6 mice, oral, cortisone challenge 16 hours post dose, serum cortisol. As for the experimental part:
Acute In Vivo Cortisone Conversion Assay
In general, compounds are dosed orally into mice, the mice are challenged with a subcutaneous injection of cortisone at a set timepoint after compound injection, and the blood of each animal is collected some time later. Separated serum is then isolated and analyzed for levels of cortisone and cortisol by LC-MS/MS, followed by calculation of mean cortisol and percent inhibition of each dosing group. Specifically, male C57BL/6 mice are obtained from Harlan Sprague Dawley at average weight of 25 grams. Exact weights are taken upon arrival and the mice randomized into groups of similar weights. Compounds are prepared in 1% w-w HEC, 0.25% w-w polysorbate 80, 0.05% w-w Dow Corning antifoam #1510-US at various doses based on assumed average weight of 25 grams. Compounds are dosed orally, 200 μl per animal, followed by a subcutaneous dose, 200 μl per animal, of 30 mg/kg cortisone at 1 to 24 hours post compound dose. At 10 minutes post cortisone challenge, each animal is euthanized for 1 minute in a CO2 chamber, followed by blood collection via cardiac puncture into serum separator tubes. Once fully clotted, tubes are spun at 2500×g, 4° C. for 15 minutes, the serum transferred to wells of 96-well plates (Corning Inc, Costar #4410, cluster tubes, 1.2 ml, polypropylene), and the plates are frozen at −20° C. until analysis by LC-MS/MS. […]

T1 sequence (P28845 whole entry): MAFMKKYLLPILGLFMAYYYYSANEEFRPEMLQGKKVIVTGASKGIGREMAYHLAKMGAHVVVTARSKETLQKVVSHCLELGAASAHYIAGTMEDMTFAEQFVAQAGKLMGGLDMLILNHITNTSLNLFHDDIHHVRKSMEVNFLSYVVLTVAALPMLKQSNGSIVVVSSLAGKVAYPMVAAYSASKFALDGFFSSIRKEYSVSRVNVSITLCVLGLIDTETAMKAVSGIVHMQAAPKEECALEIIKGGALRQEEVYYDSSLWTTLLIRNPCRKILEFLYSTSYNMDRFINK

For `O=C(c1ccc(-c2cc(Cl)c(CN3CCC(C4CCCCC4)C3=O)c(Cl)c2)cc1)N1CCN(CCF)CC1` (racemic) [Example 5, 3-Cyclohexyl-1-{3,5-dichloro-4′-[4-(2-fluoro-ethyl)-piperazine-1-carbonyl]-biphenyl-4-ylmethyl}-pyrrolidin-2-one], in test [1], inhibition was half-maximal at 15.4 nM (IC50). Further, the “% Inhibition after 16 hours” value in test [2] (dose of 30 mg/kg) is recorded as 84 (dose of 30 (mg/kg)) %.

`O=C(c1ccc(-c2cc(Cl)c(CN3CCC(N4CCCCC4)C3=O)c(Cl)c2)cc1)N1CCC(C(F)(F)F)CC1` (racemic) [Example 16, 1-[3,5-Dichloro-4′-(4-trifluoromethyl-piperidine-1-carbonyl)-biphenyl-4-ylmethyl]-3-piperidin-1-yl-pyrrolidin-2-one] came in with an IC50 in test [1] of 294 nM. Further, the “% Inhibition after 16 hours” value in test [2] (dose of 10 mg/kg) is recorded as 38 (dose of 10 (mg/kg)) %.

What is called IC50 is the midpoint of a concentration-inhibition curve. Read a high IC50 as lower potency.
